Measurements: patent publication US20240025862A1, “SUBSTITUTED N-PHENYLURACILS AND SALTS THEREOF, AND USE THEREOF AS HERBICIDAL ACTIVE SUBSTANCES” (Bayer Aktiengesellschaft, priority 2020, published 2024)

Columns and labels:
Format in all cases: in vivo
[1] = tested on: Polygonum convolvulus (POLCO); test: Post-emergence herbicidal action, greenhouse pot test
Method in brief: (§1)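 Greenhouse-grown weeds in sandy loam were sprayed post-emergence at the one-leaf stage, 2–3 weeks after sowing. Compounds were formulated as WP or EC in water with 0.5% additive at 600 l/ha, at rates of 20 g/ha or less. Visual rating after about 3 weeks used a scale from 0% (like untreated control) to 100% (plants dead).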

[2] = tested on: Viola tricolor (VIOTR); test: as above
Method in brief: as §1

[3] = tested on: Amaranthus retroflexus (AMARE); test: as above; settings: rated visually after about 3 weeks vs untreated controls, 100% = plants have died
Method in brief: as §1

[4] = tested on: Abutilon theophrasti (ABUTH); test: as above; settings: rated visually after about 3 weeks vs untreated controls, 100% = plants have died
Method in brief: as §1

[5] = tested on: Veronica persica (VERPE); test: as above
Method in brief: as §1

[6] = tested on: Lolium rigidum (LOLRI); test: as above; settings: for Post-emergence action against LOLRI in %: dosage 20 g/ha
Method in brief: as §1

[7] = tested on: Hordeum murinum (HORMU); test: as above; settings: rated visually after about 3 weeks vs untreated controls, 100% = plants have died
Method in brief: as §1

[8] = tested on: Stellaria media (STEME); test: as above
Method in brief: as §1

[9] = tested on: Pharbitis purpurea (PHBPU); test: as above
Method in brief: as §1

[10] = tested on: Avena fatua (AVEFA); test: as above; settings: 20 g/ha, rated visually after about 3 weeks vs untreated controls, 100% = plants have died
Method in brief: as §1

[11] = tested on: Zea mays (ZEAMX); test: Post-emergence crop plant compatibility, greenhouse pot test; settings: vs untreated controls
Method in brief: (§2)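 Seeds are sown in sandy loam and grown under controlled greenhouse conditions. At the one-leaf stage (2–3 weeks), foliage is sprayed with the formulated compound in water containing 0.5% additive at 600 l/ha. About 3 weeks later, injury is rated visually in % against untreated plants.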

[12] = tested on: Triticum aestivum (TRZAS); test: as above; settings: 1.25 g/ha, vs untreated controls
Method in brief: as §2

[13] = tested on: Brassica napus (BRSNW); test: as above; settings: 1.25 g/ha, vs untreated controls
Method in brief: as §2

[14] = tested on: Oryza sativa (ORYSA); test: Post-emergence crop plant compatibility, greenhouse pot test (also comparative test C); settings: 1.25 g/ha, vs untreated controls
Method in brief: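 Rice and other crops sprayed post-emergence at one-leaf stage (2–3 weeks after sowing) with WP or EC formulations plus 0.5% additive at 600 l/ha water. Visual rating about 3 weeks later versus untreated controls (100% = dead, 0% = like control); suffixes a–c denote different doses.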

[15] = tested on: Matricaria inodora (MATIN); test: Post-emergence herbicidal action, greenhouse pot test (also comparative test C)
Method in brief: (§3)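 Greenhouse pot plants in sandy loam were sprayed post-emergence at the one-leaf stage (2–3 weeks after sowing) with WP or EC formulations plus 0.5% additive at 600 l/ha water. Activity was rated visually after about 3 weeks versus untreated controls (100% = dead, 0% = like control); rates were 20 g/ha or less, and 5 g/ha or less in the comparative test.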

[16] = tested on: Alopecurus myosuroides (ALOMY); test: as above; settings: rated visually after about 3 weeks vs untreated controls, 100% = plants have died
Method in brief: as §3

[17] = tested on: Echinochloa crus-galli (ECHCG); test: as above; settings: for Post-emergence action at 1.25 g/ha against ECHCG in %: rated visually after about 3 weeks vs untreated controls, 100% = plants have died
Method in brief: as §3

[18] = tested on: Setaria viridis (SETVI); test: as above; settings: for Post-emergence action against SETVI: 20 g/ha
Method in brief: as §3

## COCCOCCOC(=O)COc1ccccc1Sc1cc(-n2c(=O)cc(C(F)(F)F)n(C)c2=O)c(F)cc1Cl [I.1-23]
[1]; dosage 1.25 g/ha
  Post-emergence action against POLCO in %: 100%
[1]; dosage 5 g/ha
  Post-emergence action against POLCO in %: 100%
[1]; dosage 20 g/ha
  Post-emergence action against POLCO in %: 100%
[2]; 1.25 g/ha
  Post-emergence action against VIOTR: 100%
[2]; 5 g/ha
  Post-emergence action against VIOTR: 100%
[2]; 20 g/ha
  Post-emergence action against VIOTR: 100%
[3]
  Post-emergence action at 1.25 g/ha against AMARE in %: 100%
  Post-emergence action at 5 g/ha against AMARE in %: 100%
  Post-emergence action at 20 g/ha against AMARE in %: 100%
[4]
  Post-emergence action at 1.25 g/ha against ABUTH in %: 100%
  Post-emergence action at 5 g/ha against ABUTH in %: 100%
  Post-emergence action at 20 g/ha against ABUTH in %: 100%
[5]; 1.25 g/ha
  Post-emergence action against VERPE: 100%
[5]; 5 g/ha
  Post-emergence action against VERPE: 100%
[5]; 20 g/ha
  Post-emergence action against VERPE: 100%
[6]
  Post-emergence action against LOLRI in %: 80%
[7]
  Post-emergence action at 5 g/ha against HORMU in %: 80%
  Post-emergence action at 20 g/ha against HORMU in %: 100%
[8]; 1.25 g/ha
  Post-emergence action against STEME: 80%
[8]; 5 g/ha
  Post-emergence action against STEME: 100%
[8]; 20 g/ha
  Post-emergence action against STEME: 100%
[9]; dosage 1.25 g/ha
  Post-emergence action against PHBPU in %: 100%
[9]; dosage 5 g/ha
  Post-emergence action against PHBPU in %: 100%
[9]; dosage 20 g/ha
  Post-emergence action against PHBPU in %: 100%
[10]
  Post-emergence action at 20 g/ha against AVEFA in %: 80%
[11]; 1.25 g/ha
  Post-emergence action against ZEAMX (crop plant compatibility): 10%
[12]
  Post-emergence action against TRZAS (crop plant compatibility): 20%
[13]
  Post-emergence action against BRSNW (crop plant compatibility): 20%
[14]
  Post-emergence action against ORYSA (crop plant compatibility): 20%
[15]; dosage 1.25 g/ha
  Post-emergence action against MATIN in %: 80%
[15]; dosage 5 g/ha
  Post-emergence action against MATIN in %: 100%
[15]; dosage 20 g/ha
  Post-emergence action against MATIN in %: 100%
[16]
  Post-emergence action at 5 g/ha against ALOMY in %: 90%
  Post-emergence action at 20 g/ha against ALOMY in %: 90%
[17]
  Post-emergence action at 1.25 g/ha against ECHCG in %: 90%
[17]; dosage 5 g/ha
  Post-emergence action against ECHCG in %: 100%
[17]; dosage 20 g/ha
  Post-emergence action against ECHCG in %: 100%
[18]
  Post-emergence action against SETVI: 100%
[18]; dosage 1.25 g/ha
  Post-emergence action against SETVI in %: 100%
[18]; dosage 5 g/ha
  Post-emergence action against SETVI in %: 100%

## COCCCOC(=O)COc1ccccc1Sc1cc(-n2c(=O)cc(C(F)(F)F)n(C)c2=O)c(F)cc1Cl [I.1-26]
[1]; dosage 1.25 g/ha
  Post-emergence action against POLCO in %: 100%
[1]; dosage 5 g/ha
  Post-emergence action against POLCO in %: 100%
[1]; dosage 20 g/ha
  Post-emergence action against POLCO in %: 100%
[2]; 1.25 g/ha
  Post-emergence action against VIOTR: 100%
[2]; 5 g/ha
  Post-emergence action against VIOTR: 100%
[2]; 20 g/ha
  Post-emergence action against VIOTR: 100%
[3]
  Post-emergence action at 1.25 g/ha against AMARE in %: 100%
  Post-emergence action at 5 g/ha against AMARE in %: 100%
  Post-emergence action at 20 g/ha against AMARE in %: 100%
[4]
  Post-emergence action at 1.25 g/ha against ABUTH in %: 100%
  Post-emergence action at 5 g/ha against ABUTH in %: 100%
  Post-emergence action at 20 g/ha against ABUTH in %: 100%
[5]; 1.25 g/ha
  Post-emergence action against VERPE: 100%
[5]; 5 g/ha
  Post-emergence action against VERPE: 100%
[5]; 20 g/ha
  Post-emergence action against VERPE: 100%
[6]; 5 g/ha, rated visually after about 3 weeks vs untreated controls, 100% = plants have died
  Post-emergence action at 5 g/ha against LOLRI in %: 80%
[6]
  Post-emergence action against LOLRI in %: 90%
[7]
  Post-emergence action at 5 g/ha against HORMU in %: 80%
  Post-emergence action at 20 g/ha against HORMU in %: 90%
[8]; 1.25 g/ha
  Post-emergence action against STEME: 100%
[8]; 5 g/ha
  Post-emergence action against STEME: 100%
[8]; 20 g/ha
  Post-emergence action against STEME: 100%
[9]; dosage 1.25 g/ha
  Post-emergence action against PHBPU in %: 100%
[9]; dosage 5 g/ha
  Post-emergence action against PHBPU in %: 100%
[9]; dosage 20 g/ha
  Post-emergence action against PHBPU in %: 100%
[10]
  Post-emergence action at 20 g/ha against AVEFA in %: 80%
[11]; 1.25 g/ha
  Post-emergence action against ZEAMX (crop plant compatibility): 10%
[11]; 5 g/ha
  Post-emergence action against ZEAMX (crop plant compatibility): 20%
[13]
  Post-emergence action against BRSNW (crop plant compatibility): 20%
[14]
  Post-emergence action against ORYSA (crop plant compatibility): 10%
[15]; dosage 1.25 g/ha
  Post-emergence action against MATIN in %: 80%
[15]; dosage 5 g/ha
  Post-emergence action against MATIN in %: 80%
[15]; dosage 20 g/ha
  Post-emergence action against MATIN in %: 100%
[16]
  Post-emergence action at 5 g/ha against ALOMY in %: 80%
  Post-emergence action at 20 g/ha against ALOMY in %: 90%
[17]
  Post-emergence action at 1.25 g/ha against ECHCG in %: 90%
[17]; dosage 5 g/ha
  Post-emergence action against ECHCG in %: 90%
[17]; dosage 20 g/ha
  Post-emergence action against ECHCG in %: 100%
[18]
  Post-emergence action against SETVI: 100%
[18]; dosage 1.25 g/ha
  Post-emergence action against SETVI in %: 100%
[18]; dosage 5 g/ha
  Post-emergence action against SETVI in %: 100%
